We go through two molecules from publication PMC7008171 (Frontiers in Pharmacology, 2020).

“And” between values parts separate entries of the source, which are not always exact repeats. Equal entries are not always repeated. Marks after values point to notes of the source that are not given here.

On the set-up of series [1]: method as in Mannens et al., 1994. As to conditions: dog plasma; ref Mannens et al., 1994; cited from earlier work.
For series [2] the following is noted: taken orally; ref Huang et al., 1993; de Leon et al., 2010; Shimizu et al., 2017; cited from earlier work.
The conditions of series [3]: ref PMDA label, 2018; cited from earlier work.
A short description of series [4]: in vivo. As to conditions: both, Beagle, dog, plasma, 1 mg.
Experimental: (§1) The dogs were kept still for 2 min. A dose of 1 mg/body was administrated.
(§2) Four healthy Beagle dogs (male:female, 1:1) weighting 9.04 ± 1.88 kg (Certificate No. 20150005001131), purchased from Shanghai Jambo Biological Technology Co., Ltd (Shanghai, China), were used in this study. The study protocol was reviewed and approved by the Animal Management and Ethic Committee of the China State Institute of Pharmaceutical Industry. Dogs were housed individually in stainless steel cages. Tap water was given ad-libitum and food was provided once daily. Dogs were fasted for 12 h before drug administration. Blank blood samples were withdrawn prior to the administration of the drugs. Subsequently, blood samples were taken from forelimb vein at 0.167, 0.333, 0.5, 0.75, 1.0, 1.5, 2.0, 3.0, 4.0, 6.0, 8.0, 12, 24, and 32 h into heparin sodium-containing centrifuge tubes which were then centrifuged for 5 min at 3,000 rpm. The supernatant was collected and stored at -20 °C in the refrigerator until further analysis.
(§3) The main pharmacokinetic parameters of maximum plasma concentration (Cmax), peak time (Tmax), area under the concentration-time curve from 0 h to the time of last measurable concentration (AUC0-t), and AUC from 0 to infinity (AUC0-∞), mean residue time (MRT), apparent volume of distribution (Vd), elimination half-life (t1/2), and in vivo clearance (CL) were calculated by non-compartmental approach using the software of DAS 2.0 ([Cheng et al., 2016]).
(§4) Calibration curves were constructed in the concentration range of 0.2–200 ng/ml with a lower limit of quantification (LLOQ) of 0.2 ng/ml. […] The HPLC system (Shimadzu Co. Ltd, Kyoto, Japan) equipped with a triple quadruple mass spectrometer (Shimadzu Co. Ltd, Kyoto, Japan) operating with ESI in the positive mode was used for the quantification of the analytes. Mobile phases consisted of methanol and water (35:65, v/v), both containing 0.05% formic acid and 5 mM ammonium formate. The flow rate was set at 0.3 ml/min. Ten μl of the aliquot was injected into the Inspire C18 column (2.1 mm×50 mm, 3 μm, Dikma Technologies Inc, Beijing, China) at a column oven of 40 °C. […] Direct protein precipitation using acetonitrile was used for the extraction of analytes from dog plasma.
Series [5] can be described thus: Pharmacokinetic study in Beagle dogs (i.v., i.g., supralingual, sublingual; crossover, single dose).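 Further: Single-dose crossover across four periods with one-week washout, plasma drug levels quantified by LC-MS/MS in positive ESI mode, lower quantification limit 0.2 ng/mL.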 Particulars: three-compartmental fit of i.v. profile in Beagle dogs.
Experimental: as §1, §2, §3, §4
The conditions of series [6]: sublingual tablets (Intermezzo), OCCAT model; ref Xia et al., 2015; cited from earlier work.

Usually AUC(0-inf) stands for total exposure, with the tail of the curve extrapolated. The AUC(0-t) is exposure summed from dosing to a finite time, without extrapolation to infinity. The term Cmax denotes the maximum level reached in the sampled fluid or tissue. As usually defined, the MRT inf is the average time that molecules of a dose stay in the body. What is called MRT last is the average time that molecules of a dose stay in the body. In general, Tmax refers to the time from dosing to the highest level. As a reminder, the Vd is a proportionality between amount in the body and measured concentration, not a real space. Broadly, the clearance is the volume of plasma or blood freed of the substance per unit of time. Low readings indicate inefficient removal, high ones efficient removal. One may read the half-life as the time needed for the level to fall by half in the phase considered. Read a high half-life as slow loss.

On to `Cc1nc2n(c(=O)c1CCN1CCC(c3noc4cc(F)ccc34)CC1)CCCC2` [risperidone], for which, in series [1], the “fu (plasma unbound fraction)” value is given as 0.083 ^c. Further, in series [2], the Oral bioavailability result is given as “about 70%”. Further, the “Solubility (pH 6.8)” value in series [3] is on record as 0.9 ^d mg/ml. In series [4], this molecule registered an area under the curve AUC(0-inf) of 0.102 ± 0.0433 µg·h/mL, an AUC(0-t) of 0.0989 ± 0.0409 µg·h/mL, a Cmax of 0.0526 ± 0.0106 µg/mL and a mean residence time (MRT inf) of 1.93 ± 0.52 h. In addition, in series [4], the MRT last amounted to 1.78 ± 0.41 h, the Tmax came to 0.67 ± 0.38 h, the Vd was found to be 17.8 ± 3.06 L and the clearance was 184 mL/min. Also, the half-life in series [4] is 1.21 ± 0.4 h. In series [4] (iv), this molecule showed an area under the curve AUC(0-inf) of 0.179 ± 0.115 µg·h/mL, an AUC(0-t) of 0.177 ± 0.113 µg·h/mL, a Cmax of 0.215 ± 0.0564 µg/mL and an MRT inf of 1.4 ± 0.89 h. In series [4] (iv), the MRT last worked out at 1.3 ± 0.8 h; the Tmax came to 0.03 h; the Vd is 12.8 L and 0.314 L/kg; the clearance is 128 mL/min and 9.84 mL/min/kg. The half-life in series [4] (iv) is 1.37 ± 0.82 h. In series [4] (other: supralingual), this molecule returned an AUC(0-inf) of 0.102 ± 0.0574 µg·h/mL, an AUC(0-t) of 0.0973 ± 0.0544 µg·h/mL, a Cmax of 0.0594 ± 0.00732 µg/mL and a mean residence time MRT inf of 1.73 ± 0.82 h. Further, in series [4] (other: supralingual), the mean residence time MRT last turned out to be 1.5 ± 0.71 h, the time to peak (Tmax) was 0.62 ± 0.58 h, the Vd turned out to be 17.2 ± 7.7 L and the clearance is 199 mL/min. Moreover, the half-life in series [4] (other: supralingual) was 1.13 ± 0.5 h. Further, in series [4] (po), the AUC(0-inf) amounted to 0.0913 ± 0.0486 µg·h/mL, the exposure AUC(0-t) came to 0.09 ± 0.0487 µg·h/mL, the peak level (Cmax) was 0.0459 ± 0.0076 µg/mL and the MRT inf was 1.79 ± 0.74 h. In series [4] (po), the MRT last was 1.71 ± 0.75 h, the Tmax is 0.71 ± 0.53 h and the half-life was 0.92 ± 0.41 h. For the same molecule, in series [5], the K12 was 16.352 ^e h^-1, the K13 is recorded as 0.4625 ^e h^-1, the K21 is given as 9.007 ^e h^-1 and the K31 was 0.4103 ^e h^-1. Besides, in series [5], the “V2 (volume of distribution of the first peripheral compartment)” value is 0.5699 ^e L/kg and the “V3 (volume of distribution of the second peripheral compartment)” value was 0.3538 ^e L/kg.
In the case of `Cc1ccc(-c2nc3ccc(C)cn3c2CC(=O)N(C)C)cc1` [zolpidem], the “Estimated absorption via the oral mucosa” value in series [6] is “about 18%”.
